For orientation: IC50 means the midpoint of a concentration-inhibition curve.

Experiment [1] has as its target Vasopressin V1a receptor (Homo sapiens, UniProt P37288). The experiment is classed as cell membranes, Membrane. As to conditions: hek293. Note: in other assays of this panel Not Active means under 50% inhibition at 10 µM.
Experiment [2] has as its target Estrogen receptor beta (Homo sapiens, UniProt Q92731). The note with it: sf9. Note: in other assays of this panel Not Active means under 50% inhibition at 10 µM.
Experiment [3] has as its target Acetylcholinesterase (Homo sapiens, UniProt P22303). The experiment is described as follows: DRUGMATRIX: Acetylcholinesterase enzyme inhibition (substrate: acetylthiocholine). The note with it: Not Active = under 50% inhibition at 10 µM. The experiment is classed as cell-based, HEK293.
Experiment [4] has as its target T1, Alpha-2A adrenergic receptor (Homo sapiens, UniProt P08913). Note: in other assays of this panel Not Active means under 50% inhibition at 10 µM.
T1 sequence (P08913 whole entry): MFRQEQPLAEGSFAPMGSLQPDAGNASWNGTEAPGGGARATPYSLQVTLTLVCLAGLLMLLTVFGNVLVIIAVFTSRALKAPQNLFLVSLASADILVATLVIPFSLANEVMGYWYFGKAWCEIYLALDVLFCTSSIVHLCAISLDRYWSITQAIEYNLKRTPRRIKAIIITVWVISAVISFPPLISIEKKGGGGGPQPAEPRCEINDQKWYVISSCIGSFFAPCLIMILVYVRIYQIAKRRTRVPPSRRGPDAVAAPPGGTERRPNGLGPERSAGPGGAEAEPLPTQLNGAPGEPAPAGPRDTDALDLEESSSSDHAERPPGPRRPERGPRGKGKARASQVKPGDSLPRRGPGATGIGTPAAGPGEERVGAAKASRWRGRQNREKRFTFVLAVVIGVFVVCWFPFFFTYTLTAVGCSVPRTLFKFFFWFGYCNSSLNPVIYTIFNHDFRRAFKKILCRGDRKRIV
The experiment is classed as cell membranes, Sf9, Membrane. As to conditions: sf9.

Experiment [5] concerns the target T2, Neuropeptide Y receptor type 2 (Homo sapiens, UniProt P49146). Note: in other assays of this panel Not Active means under 50% inhibition at 10 µM.
T2 sequence (P49146 whole entry): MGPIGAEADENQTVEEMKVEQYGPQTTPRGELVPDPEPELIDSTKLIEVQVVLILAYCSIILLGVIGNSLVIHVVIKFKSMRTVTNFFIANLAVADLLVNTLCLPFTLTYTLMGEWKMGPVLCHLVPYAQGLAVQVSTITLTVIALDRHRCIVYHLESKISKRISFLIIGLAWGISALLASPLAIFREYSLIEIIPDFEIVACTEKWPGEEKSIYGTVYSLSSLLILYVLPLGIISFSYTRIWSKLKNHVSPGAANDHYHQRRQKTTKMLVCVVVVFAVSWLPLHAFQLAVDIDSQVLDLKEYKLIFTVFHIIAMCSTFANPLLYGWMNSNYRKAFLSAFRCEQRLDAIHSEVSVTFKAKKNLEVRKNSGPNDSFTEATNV
The experiment is classed as cell membranes, Membrane. The note with it: kan-ts.

Experiment [6] addresses T3, C-X-C chemokine receptor type 1 (Homo sapiens, UniProt P25024).
T3 sequence (P25024 whole entry): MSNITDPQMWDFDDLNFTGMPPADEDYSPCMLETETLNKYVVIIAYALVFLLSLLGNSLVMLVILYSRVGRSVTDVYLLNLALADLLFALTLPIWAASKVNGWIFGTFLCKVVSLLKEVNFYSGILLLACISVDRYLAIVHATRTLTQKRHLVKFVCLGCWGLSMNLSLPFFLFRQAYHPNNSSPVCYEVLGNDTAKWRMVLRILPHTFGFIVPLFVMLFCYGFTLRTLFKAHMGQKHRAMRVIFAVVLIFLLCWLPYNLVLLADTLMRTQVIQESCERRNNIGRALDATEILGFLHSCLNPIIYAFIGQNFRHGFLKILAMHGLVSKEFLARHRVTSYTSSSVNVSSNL

In experiment [7] the target is Mitogen-activated protein kinase 3 (Homo sapiens, UniProt P27361). Put plainly: DRUGMATRIX: Protein Serine/Threonine Kinase, ERK1 enzyme inhibition (substrate: Myelin Basic Protein). Details: species or system Escherichia coli. As to conditions: Not Active = under 50% inhibition at 10 µM.
Chain of Mitogen-activated protein kinase 3 (P27361 whole entry): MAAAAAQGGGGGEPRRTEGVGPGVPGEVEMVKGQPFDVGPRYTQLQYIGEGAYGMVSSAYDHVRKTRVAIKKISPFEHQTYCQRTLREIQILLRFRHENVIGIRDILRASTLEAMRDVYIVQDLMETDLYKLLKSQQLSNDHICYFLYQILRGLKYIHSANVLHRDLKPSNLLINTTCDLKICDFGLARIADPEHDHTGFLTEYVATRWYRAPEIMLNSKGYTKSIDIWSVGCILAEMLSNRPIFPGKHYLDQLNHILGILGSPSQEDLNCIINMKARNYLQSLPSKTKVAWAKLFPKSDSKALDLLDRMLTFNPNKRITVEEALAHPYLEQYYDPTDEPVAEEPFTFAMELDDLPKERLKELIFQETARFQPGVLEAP
In experiment [8] the target is T4, Angiotensin-converting enzyme (Oryctolagus cuniculus, UniProt P12822).
T4 sequence (P12822 whole entry): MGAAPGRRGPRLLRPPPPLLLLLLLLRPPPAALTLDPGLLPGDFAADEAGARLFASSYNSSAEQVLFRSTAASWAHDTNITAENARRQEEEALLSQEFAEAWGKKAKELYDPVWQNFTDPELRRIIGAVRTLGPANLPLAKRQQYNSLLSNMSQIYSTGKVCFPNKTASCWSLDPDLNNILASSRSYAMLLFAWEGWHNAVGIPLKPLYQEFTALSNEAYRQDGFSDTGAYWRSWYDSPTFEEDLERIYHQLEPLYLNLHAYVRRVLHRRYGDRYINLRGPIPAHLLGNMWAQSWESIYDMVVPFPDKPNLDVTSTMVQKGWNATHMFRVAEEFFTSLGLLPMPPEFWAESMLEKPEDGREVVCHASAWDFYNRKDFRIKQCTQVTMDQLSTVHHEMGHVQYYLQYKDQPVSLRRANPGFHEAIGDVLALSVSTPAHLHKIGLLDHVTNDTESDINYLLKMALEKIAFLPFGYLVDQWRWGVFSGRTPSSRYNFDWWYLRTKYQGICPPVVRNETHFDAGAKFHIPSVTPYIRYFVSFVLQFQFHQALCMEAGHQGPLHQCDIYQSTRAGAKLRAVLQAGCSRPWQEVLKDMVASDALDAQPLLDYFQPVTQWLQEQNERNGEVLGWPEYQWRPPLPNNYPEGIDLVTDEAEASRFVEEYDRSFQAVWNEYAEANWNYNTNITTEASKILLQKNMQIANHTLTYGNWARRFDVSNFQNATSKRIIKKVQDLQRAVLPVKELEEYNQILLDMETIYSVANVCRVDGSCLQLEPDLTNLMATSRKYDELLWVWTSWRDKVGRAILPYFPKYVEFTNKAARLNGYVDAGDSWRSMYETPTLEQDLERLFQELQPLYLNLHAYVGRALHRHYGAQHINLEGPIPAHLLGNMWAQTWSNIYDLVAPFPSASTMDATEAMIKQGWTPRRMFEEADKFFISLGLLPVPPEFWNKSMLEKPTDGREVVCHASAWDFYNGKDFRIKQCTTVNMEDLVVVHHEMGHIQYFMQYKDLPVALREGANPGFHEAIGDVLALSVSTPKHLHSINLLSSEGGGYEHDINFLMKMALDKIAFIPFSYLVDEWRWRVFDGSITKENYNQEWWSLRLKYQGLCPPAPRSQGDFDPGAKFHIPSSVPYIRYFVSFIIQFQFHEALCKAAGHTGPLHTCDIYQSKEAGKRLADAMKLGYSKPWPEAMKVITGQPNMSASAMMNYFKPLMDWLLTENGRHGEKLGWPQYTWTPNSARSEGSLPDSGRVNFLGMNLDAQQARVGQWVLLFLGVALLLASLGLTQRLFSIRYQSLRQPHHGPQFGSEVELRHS
The experiment is classed as tissue-based, Lung.

Experiment [9] concerns the target Tyrosine-protein kinase Lck (Homo sapiens, UniProt P06239). The experiment is described as follows: DRUGMATRIX: Protein Tyrosine Kinase, LCK enzyme inhibition (substrate: Poly(Glu:Tyr)). The experiment is classed as cell-based, Insect cells. As to conditions: insect cells; Not Active = under 50% inhibition at 10 µM.

Chain of Tyrosine-protein kinase Lck (P06239 whole entry): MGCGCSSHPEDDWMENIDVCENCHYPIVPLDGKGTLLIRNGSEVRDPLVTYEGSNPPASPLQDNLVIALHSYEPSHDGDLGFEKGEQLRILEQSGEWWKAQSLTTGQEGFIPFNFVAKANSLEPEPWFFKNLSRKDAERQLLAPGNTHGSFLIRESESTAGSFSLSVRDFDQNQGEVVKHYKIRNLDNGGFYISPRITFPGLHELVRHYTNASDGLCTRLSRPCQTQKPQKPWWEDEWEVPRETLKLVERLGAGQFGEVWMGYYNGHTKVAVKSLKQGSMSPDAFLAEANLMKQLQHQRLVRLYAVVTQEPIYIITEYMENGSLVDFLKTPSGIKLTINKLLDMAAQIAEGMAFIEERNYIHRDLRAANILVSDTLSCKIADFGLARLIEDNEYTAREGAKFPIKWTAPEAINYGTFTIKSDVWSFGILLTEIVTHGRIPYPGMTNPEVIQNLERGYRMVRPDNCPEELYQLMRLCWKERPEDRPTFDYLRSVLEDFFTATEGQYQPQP
Chain of Estrogen receptor beta (Q92731 whole entry): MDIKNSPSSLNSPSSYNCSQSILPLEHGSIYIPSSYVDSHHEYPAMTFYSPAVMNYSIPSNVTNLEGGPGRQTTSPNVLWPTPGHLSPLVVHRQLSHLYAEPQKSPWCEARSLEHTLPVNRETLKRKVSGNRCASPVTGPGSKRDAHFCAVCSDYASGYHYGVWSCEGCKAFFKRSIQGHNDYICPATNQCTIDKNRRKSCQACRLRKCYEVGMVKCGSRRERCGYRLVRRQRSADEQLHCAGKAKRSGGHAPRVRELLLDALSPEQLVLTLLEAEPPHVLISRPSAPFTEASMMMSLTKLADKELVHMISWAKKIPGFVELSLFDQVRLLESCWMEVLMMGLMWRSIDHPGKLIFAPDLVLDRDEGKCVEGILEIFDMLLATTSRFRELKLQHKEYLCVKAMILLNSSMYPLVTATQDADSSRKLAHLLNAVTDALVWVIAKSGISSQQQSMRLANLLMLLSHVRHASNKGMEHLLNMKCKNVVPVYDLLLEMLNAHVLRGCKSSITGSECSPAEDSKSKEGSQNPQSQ
Chain of Acetylcholinesterase (P22303 whole entry): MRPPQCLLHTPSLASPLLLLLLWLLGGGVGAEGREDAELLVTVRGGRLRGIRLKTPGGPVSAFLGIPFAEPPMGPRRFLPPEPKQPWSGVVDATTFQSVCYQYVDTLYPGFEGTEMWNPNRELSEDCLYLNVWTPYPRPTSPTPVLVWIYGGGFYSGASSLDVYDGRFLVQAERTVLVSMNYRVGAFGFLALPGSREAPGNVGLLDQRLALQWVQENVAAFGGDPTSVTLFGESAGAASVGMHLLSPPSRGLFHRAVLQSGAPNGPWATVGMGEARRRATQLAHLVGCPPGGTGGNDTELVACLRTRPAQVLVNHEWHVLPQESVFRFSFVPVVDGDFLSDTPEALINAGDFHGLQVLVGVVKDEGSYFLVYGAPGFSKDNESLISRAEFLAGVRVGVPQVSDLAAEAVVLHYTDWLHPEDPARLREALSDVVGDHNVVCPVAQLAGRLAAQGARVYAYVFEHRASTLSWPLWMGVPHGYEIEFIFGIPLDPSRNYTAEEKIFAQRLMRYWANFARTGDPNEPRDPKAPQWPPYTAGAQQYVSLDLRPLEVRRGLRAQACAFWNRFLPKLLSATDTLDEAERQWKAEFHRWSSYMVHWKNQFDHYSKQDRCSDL
Chain of Vasopressin V1a receptor (P37288 whole entry): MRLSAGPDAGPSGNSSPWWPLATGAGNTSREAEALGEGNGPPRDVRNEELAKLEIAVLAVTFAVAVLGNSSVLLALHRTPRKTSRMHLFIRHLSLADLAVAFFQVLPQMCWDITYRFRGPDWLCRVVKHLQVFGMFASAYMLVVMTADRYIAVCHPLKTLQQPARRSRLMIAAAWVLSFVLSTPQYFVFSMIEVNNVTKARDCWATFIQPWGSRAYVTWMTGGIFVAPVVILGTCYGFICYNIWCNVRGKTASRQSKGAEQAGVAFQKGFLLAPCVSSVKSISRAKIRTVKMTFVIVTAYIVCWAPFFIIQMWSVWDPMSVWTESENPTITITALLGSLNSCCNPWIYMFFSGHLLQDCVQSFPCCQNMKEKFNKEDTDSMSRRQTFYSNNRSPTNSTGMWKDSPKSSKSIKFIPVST

As for `CC1=C(CC(=O)O)c2cc(F)ccc2/C1=C\c1ccc([S+](C)[O-])cc1` (stereo not given), the IC50 entry in experiment [1], in [2], in experiment [3] (hek293), in [4], in experiment [5] and in experiment [6] was “Not Active” in each case. Further, the IC50 result in experiment [7], in experiment [8] and in experiment [9] was “Not Active” throughout.
Take `N[C@H](CSC(=S)NCc1ccccc1)C(=O)O`: the IC50 entry in experiment [1], in experiment [2], in experiment [3] (hek293), in experiment [4], in experiment [5] and in experiment [6] was “Not Active” throughout. The IC50 entry in experiment [7], in [8] and in experiment [9] was “Not Active” in each case.
With `Clc1ccc2c(c1)C(N1CCNCC1)=Nc1ccccc1O2` [AMOXAPINE], the IC50 entry in [1], in [2], in [3] (hek293), in experiment [5], in experiment [6] and in experiment [7] was “Not Active” in each case. The IC50 result in experiment [8] and in experiment [9] was “Not Active” each time.
On to `CN1CCC(=C2c3ccccc3C=Cc3ccccc32)CC1` [CYPROHEPTADINE], for which the IC50 result in experiment [1], in experiment [2], in [3] (hek293), in experiment [5], in [6] and in experiment [7] was “Not Active” in each case. Moreover, the IC50 entry in experiment [8] and in experiment [9] was “Not Active” throughout.
On to `CC/C(=C(/CC)c1ccc(O)cc1)c1ccc(O)cc1` [DIETHYLSTILBESTROL], for which the IC50 entry in [2] was “Not Active”; in experiment [3] (read-out: IC50), 25.6 µM; in experiment [5], “Not Active”; in [6] it was “Not Active”; in experiment [7], “Not Active”; in [8] it was “Not Active”. For the same molecule, the IC50 entry in experiment [9] is recorded as “Not Active”.
As for `COCCOC(=O)C1=C(C)NC(C)=C(C(=O)OC(C)C)C1c1cccc([N+](=O)[O-])c1` (stereo not given) [NIMODIPINE], the IC50 result in [1], in [3] (hek293), in experiment [4], in [5], in experiment [6] and in [7] was “Not Active” in each case. For the same molecule, the IC50 result in experiment [8] and in experiment [9] was “Not Active” each time.
Consider `O=C(c1ccc(OCCN2CCCCC2)cc1)c1c(-c2ccc(O)cc2)sc2cc(O)ccc12` [RALOXIFENE], for which the IC50 entry was “Not Active” in experiment [1]; “Not Active” in experiment [2]; 0.4 µM in experiment [3] (read-out: IC50); “Not Active” in [5]; “Not Active” in experiment [6]; “Not Active” in experiment [7]. The IC50 result in [8] and in [9] was “Not Active” throughout.
Turning to `CC(C)c1nc(CN(C)C(=O)N[C@H](C(=O)N[C@@H](Cc2ccccc2)C[C@H](O)[C@H](Cc2ccccc2)NC(=O)OCc2cncs2)C(C)C)cs1` [RITONAVIR], the IC50 entry in [2], in [3] (hek293), in experiment [4], in [5], in experiment [6] and in experiment [7] was “Not Active” throughout. Further, the IC50 entry in experiment [8] and in experiment [9] was “Not Active” throughout.
For the molecule `Cc1cc(C)nc(NS(=O)(=O)c2ccc(N)cc2)n1` [SULFAMETHAZINE], the IC50 result in experiment [1], in experiment [3] (hek293), in experiment [4], in [5], in experiment [6] and in experiment [7] was “Not Active” each time. Also, the IC50 entry in [8] and in [9] was “Not Active” in each case.
Take `C[C@]1(Cn2ccnn2)[C@H](C(=O)O)N2C(=O)C[C@H]2S1(=O)=O` [TAZOBACTAM]: the IC50 result in experiment [1], in experiment [3] (hek293), in experiment [4], in experiment [5], in [6] and in experiment [7] was “Not Active” each time. In addition, the half-inhibitory concentration (IC50) result in experiment [8] and in experiment [9] was “Not Active” each time.
Consider `CC(=O)CC(c1ccccc1)c1c(O)c2ccccc2oc1=O` (stereo not given) [WARFARIN], for which the IC50 result in experiment [1], in experiment [3] (hek293), in [4], in [5], in experiment [6] and in experiment [7] was “Not Active” each time. Besides, the IC50 entry in experiment [8] and in experiment [9] was “Not Active” throughout.
For the molecule `C[C@@H](N)[C@H]1CC[C@H](C(=O)Nc2ccncc2)CC1` [Y-27632], the IC50 result in experiment [1], in experiment [2], in experiment [3] (hek293), in [4], in experiment [5] and in [6] was “Not Active” throughout. Moreover, the IC50 entry in experiment [7] and in experiment [8] was “Not Active” each time.
For `[Cl-].[Cl-].[Zn+2]` [ZINC CHLORIDE], the IC50 entry in [1], in [3] (hek293), in experiment [4], in experiment [5], in experiment [6] and in experiment [7] was “Not Active” throughout. Further, the IC50 result in experiment [8] and in experiment [9] was “Not Active” in each case.

For the origin of these results see ChEMBL document CHEMBL1909046, “DrugMatrix in vitro pharmacology data”.
